Test results taken from patent US20030203373A1 (priority 2002, published 2003).
Several values for one entry are separate records, joined by “and”; a condition that tells them apart may be missing. Equal entries are not always repeated. Ends that are not written are not given here.

Target: T1, ACE from pig kidney (Sus scrofa, UniProt F1RRW5)
T1 construct: 1 mU ACE from pig kidney (EC 3.4.15.1 (Sigma)); purchased Sigma; host or cells: pig kidney (tissue-derived enzyme)
T1 sequence (F1RRW5 34-1309): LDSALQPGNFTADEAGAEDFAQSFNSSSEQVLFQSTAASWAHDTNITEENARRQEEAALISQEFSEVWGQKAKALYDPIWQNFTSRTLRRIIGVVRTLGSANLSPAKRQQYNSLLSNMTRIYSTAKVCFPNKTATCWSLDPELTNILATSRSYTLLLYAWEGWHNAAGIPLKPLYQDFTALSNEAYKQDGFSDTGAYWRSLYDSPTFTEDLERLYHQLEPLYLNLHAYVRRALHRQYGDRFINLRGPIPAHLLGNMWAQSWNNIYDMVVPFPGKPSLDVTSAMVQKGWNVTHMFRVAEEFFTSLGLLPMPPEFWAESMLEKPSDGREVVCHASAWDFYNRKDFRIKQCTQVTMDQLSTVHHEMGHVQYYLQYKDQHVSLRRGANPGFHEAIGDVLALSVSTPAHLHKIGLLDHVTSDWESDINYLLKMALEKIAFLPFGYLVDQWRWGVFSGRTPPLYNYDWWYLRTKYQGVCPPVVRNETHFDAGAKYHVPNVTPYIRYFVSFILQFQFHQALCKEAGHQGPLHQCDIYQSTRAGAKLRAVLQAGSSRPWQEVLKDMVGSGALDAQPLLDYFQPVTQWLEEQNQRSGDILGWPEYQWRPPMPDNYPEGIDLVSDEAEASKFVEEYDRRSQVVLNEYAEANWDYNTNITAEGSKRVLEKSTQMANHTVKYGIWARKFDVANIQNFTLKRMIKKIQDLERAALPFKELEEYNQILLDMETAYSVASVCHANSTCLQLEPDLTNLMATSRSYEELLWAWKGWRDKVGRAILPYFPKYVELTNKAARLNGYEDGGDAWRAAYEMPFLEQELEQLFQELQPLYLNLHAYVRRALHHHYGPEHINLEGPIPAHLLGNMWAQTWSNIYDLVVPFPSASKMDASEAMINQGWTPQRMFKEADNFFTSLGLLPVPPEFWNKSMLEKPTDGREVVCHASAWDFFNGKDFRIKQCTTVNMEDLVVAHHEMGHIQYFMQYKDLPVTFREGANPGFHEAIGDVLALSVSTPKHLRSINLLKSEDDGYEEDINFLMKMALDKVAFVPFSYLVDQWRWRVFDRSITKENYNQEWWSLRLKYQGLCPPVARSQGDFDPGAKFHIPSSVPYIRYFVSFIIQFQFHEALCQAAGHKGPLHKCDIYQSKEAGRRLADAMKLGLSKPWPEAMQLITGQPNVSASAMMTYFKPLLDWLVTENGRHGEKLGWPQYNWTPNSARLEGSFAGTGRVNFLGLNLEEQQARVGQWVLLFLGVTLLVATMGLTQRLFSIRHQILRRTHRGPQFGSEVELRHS
Assay: biochemical
Type: biochemical
Conditions: for IC50: ACE from pig kidney, determined graphically, read-out: IC50-value (ACE inhibition)
From the text: These peptides were investigated for their inhibitory effect using an in vitro-ACE-inhibitor-assay with an angiotensin-converting-enzyme derived from pig kidney. Hippuryl-histidyl-leucin was used as a substrate. […] A concrete experimental description is given below.
The principle of the ACE-inhibition-assay was established by Chejung, H. S., Cushman, D. W.: “Inhibition of homogenous angiotensin converting enzyme of rabbit lung by synthetic venom peptides of Bothrops jararaca.” in Biochimica et Biophysica Acta 293, 451-563 (1973).
The assay was performed in 96 well HTRF-plates (Packard). The concentrations used for each well were:
1 mU ACE from pig kidney (EC 3.4.15.1 (Sigma)) in 30 μl of assay buffer (25 mM HEPES; 0,3 M NaCl, pH 8,2) and 20 μl inhibitor dissolved in assay buffer (0,35-200 μM). The reaction was started by adding 50 μl of 2 mM hippuryl-histidyl-leucin (Sigma) in assay buffer. The reaction was performed at room temperature (22° C.) for 30 minutes and terminated by adding 50 μl of 2 M NaOH. Afterwards 50 μl of 0,5% ortho-phtalaldehyd (Sigma) in methanol were added, 5 minutes later followed by 50 μl of 2,5 M HCl-solution to stabilize the developed fluorescence product.
The results were used to calculate the % inhibition. The IC50-values were determined graphically from a curve showing the dose-reaction ratio.
In order to minimize errors due to time-dependent differences, all pipetting steps were performed in a precise time schedule.

[1] = inhibitor 0.39 μM, replicates A-D
[2] = inhibitor 0.39 μM, replicates A-D, 0.39 µM
[3] = inhibitor 0.78125 μM, replicates A-D
[4] = inhibitor 0.78125 μM, replicates A-D, 0.78125 µM
[5] = inhibitor 1.5625 μM, replicates A-D
[6] = inhibitor 1.5625 μM, replicates A-D, 1.5625 µM
[7] = inhibitor 3.125 μM, replicates A-D
[8] = inhibitor 3.125 μM, replicates A-D, 3.125 µM
[9] = inhibitor 6.25 μM, replicates A-D
[10] = inhibitor 6.25 μM, replicates A-D, 6.25 µM
[11] = inhibitor 12.5 μM, replicates A-D
[12] = inhibitor 12.5 μM, replicates A-D, 12.5 µM
[13] = inhibitor 25 μM, replicates A-D
[14] = inhibitor 25 μM, replicates A-D, 25 µM
[15] = inhibitor 50 μM, replicates A-D
[16] = inhibitor 50 μM, replicates A-D, 50 µM
[17] = inhibitor 100 μM, replicates A-D
[18] = inhibitor 100 μM, replicates A-D, 100 µM
[19] = inhibitor 200 μM, replicates A-D
[20] = inhibitor 200 μM, replicates A-D, 200 µM

PLPEVPP [Peptide S548, PLPEVPP]
IC50: 21 µM
fluorescence reading (ACE Inhibitor Assay) [1]: 850082 and 861072 and 990310 and 812986
% inhibition (ACE Inhibitor Assay) [2]: 5,85% and 4,63% and −9,77% and 9,98%
fluorescence reading (ACE Inhibitor Assay) [3]: 736956 and 848448 and 878121 and 787559
% inhibition (ACE Inhibitor Assay) [4]: 18,46% and 6,03% and 2,73% and 12,82%
fluorescence reading (ACE Inhibitor Assay) [5]: 672595 and 802519 and 857919 and 773857
% inhibition (ACE Inhibitor Assay) [6]: 25,63% and 11,15% and 4,98% and 14,35%
fluorescence reading (ACE Inhibitor Assay) [7]: 735840 and 756404 and 788637 and 719509
inhibition at 3.125 µM [7]: 18.6%
% inhibition (ACE Inhibitor Assay) [8]: 16,29% and 12,7% and 20,4%
fluorescence reading (ACE Inhibitor Assay) [9]: 644083 and 676136 and 699343 and 628007
inhibition at 6.25 µM [9]: 28.8%
% inhibition (ACE Inhibitor Assay) [10]: 25,23% and 22,65% and 30,6%
fluorescence reading (ACE Inhibitor Assay) [11]: 668264 and 582524 and 619407 and 572641
inhibition at 12.5 µM [11]: 37.2%
% inhibition (ACE Inhibitor Assay) [12]: 35,66% and 31,55% and 36,76%
fluorescence reading (ACE Inhibitor Assay) [13]: 411233 and 394114 and 413347 and 402465
inhibition at 25 µM [13]: 54.8%
% inhibition (ACE Inhibitor Assay) [14]: 56,66% and 54,52% and 55,73%
fluorescence reading (ACE Inhibitor Assay) [15]: 291507 and 326054 and 343249 and 278402
inhibition at 50 µM [15]: 68.1%
% inhibition (ACE Inhibitor Assay) [16]: 64,24% and 62,33% and 69,55%
fluorescence reading (ACE Inhibitor Assay) [17]: 181416 and 194177 and 204171 and 168452
inhibition at 100 µM [17]: 80.4%
% inhibition (ACE Inhibitor Assay) [18]: 78,94% and 77,82% and 81,8%
fluorescence reading (ACE Inhibitor Assay) [19]: 108115 and 108968 and 113955 and 101322
inhibition at 200 µM [19]: 88.5%
% inhibition (ACE Inhibitor Assay) [20]: 88,43% and 87,87% and 89,28%

EAGAALSPLPEVPP [Peptide S542]
IC50: 38 µM
fluorescence reading (ACE Inhibitor Assay) [1]: 930945 and 967806 and 1003456 and 906307
% inhibition (ACE Inhibitor Assay) [2]: 4.59% and 0.79% and −2.87% and 7.13%
fluorescence reading (ACE Inhibitor Assay) [3]: 910838 and 902555 and 939597 and 880680
% inhibition (ACE Inhibitor Assay) [4]: 6.66% and 7.52% and 3.7% and 9.77%
fluorescence reading (ACE Inhibitor Assay) [5]: 794214 and 874684 and 882788 and 794177
inhibition at 1.5625 µM [5]: 18.7%
% inhibition (ACE Inhibitor Assay) [6]: 10.39% and 9.55%
fluorescence reading (ACE Inhibitor Assay) [7]: 821478 and 820849 and 868901 and 796263
inhibition at 3.125 µM [7]: 15.9%
% inhibition (ACE Inhibitor Assay) [8]: 15.93% and 10.98% and 18.47%
fluorescence reading (ACE Inhibitor Assay) [9]: 801078 and 799975 and 802324 and 795040
inhibition at 6.25 µM [9]: 18%
% inhibition (ACE Inhibitor Assay) [10]: 18.08% and 17.84% and 18.59%
fluorescence reading (ACE Inhibitor Assay) [11]: 719799 and 744223 and 765229 and 709216
inhibition at 12.5 µM [11]: 26.3%
% inhibition (ACE Inhibitor Assay) [12]: 23.83% and 21.66% and 27.43%
fluorescence reading (ACE Inhibitor Assay) [13]: 609106 and 591988 and 618193 and 569641
inhibition at 25 µM [13]: 37.8%
% inhibition (ACE Inhibitor Assay) [14]: 39.51% and 36.81% and 41.81%
fluorescence reading (ACE Inhibitor Assay) [15]: 424530 and 419325 and 440093 and 406539
inhibition at 50 µM [15]: 56.8%
% inhibition (ACE Inhibitor Assay) [16]: 57.3% and 55.16% and 58.61%
fluorescence reading (ACE Inhibitor Assay) [17]: 273140 and 278465 and 286263 and 274375
inhibition at 100 µM [17]: 72.3%
% inhibition (ACE Inhibitor Assay) [18]: 71.8% and 71% and 72.23%
fluorescence reading (ACE Inhibitor Assay) [19]: 167517 and 173807 and 184836 and 169891
inhibition at 200 µM [19]: 83.2%
% inhibition (ACE Inhibitor Assay) [20]: 82.59% and 81.45% and 82.99%
